What is called IC50 is the concentration that gives 50% inhibition. A high value points to a need for much substance.

The target of this assay is SIK2 (Homo sapiens (Human), UniProt Q9H0K1). Description: SIK2 Enzymatic Assay Version 2 (High ATP). The format is biochemical. The conditions noted are these: 3 mM ATP and 200 μM HDAC5tide final, ADP-Glo Max luminescence. On the procedure: All steps were performed at room temperature. Compounds were pre-plated onto an assay plate using an Echo acoustic dispenser (Labcyte, […] or […]) at 80 nL per well. Enzyme prepared in assay buffer at 6 nM (2× final concentration) was added at 4 μL per well using the Multidrop Combi (Thermo Fisher-used for all additions in this assay) to the assay plate, spun for 1 min at 1000 rpm (Allegra 6KR Beckman Coulter centrifuge), and incubated with compound for 30 minutes. […] ADP-Glo Max Reagent (prepared and aliquoted as per manufacturer instructions) was then added at 8 μL per well, spun and incubated for 2 hours. ADP-Glo Max Detection (prepared and aliquoted as per manufacturer instructions) was added at 8 μL per well to the assay plate, which was spun and incubated for 1 hour. The plate was then read on the Pherastar (BMG Labtech) using a luminescence read. Gain was set between 2200-2500.
SIK2, sequence (Q9H0K1 whole entry, species assumed): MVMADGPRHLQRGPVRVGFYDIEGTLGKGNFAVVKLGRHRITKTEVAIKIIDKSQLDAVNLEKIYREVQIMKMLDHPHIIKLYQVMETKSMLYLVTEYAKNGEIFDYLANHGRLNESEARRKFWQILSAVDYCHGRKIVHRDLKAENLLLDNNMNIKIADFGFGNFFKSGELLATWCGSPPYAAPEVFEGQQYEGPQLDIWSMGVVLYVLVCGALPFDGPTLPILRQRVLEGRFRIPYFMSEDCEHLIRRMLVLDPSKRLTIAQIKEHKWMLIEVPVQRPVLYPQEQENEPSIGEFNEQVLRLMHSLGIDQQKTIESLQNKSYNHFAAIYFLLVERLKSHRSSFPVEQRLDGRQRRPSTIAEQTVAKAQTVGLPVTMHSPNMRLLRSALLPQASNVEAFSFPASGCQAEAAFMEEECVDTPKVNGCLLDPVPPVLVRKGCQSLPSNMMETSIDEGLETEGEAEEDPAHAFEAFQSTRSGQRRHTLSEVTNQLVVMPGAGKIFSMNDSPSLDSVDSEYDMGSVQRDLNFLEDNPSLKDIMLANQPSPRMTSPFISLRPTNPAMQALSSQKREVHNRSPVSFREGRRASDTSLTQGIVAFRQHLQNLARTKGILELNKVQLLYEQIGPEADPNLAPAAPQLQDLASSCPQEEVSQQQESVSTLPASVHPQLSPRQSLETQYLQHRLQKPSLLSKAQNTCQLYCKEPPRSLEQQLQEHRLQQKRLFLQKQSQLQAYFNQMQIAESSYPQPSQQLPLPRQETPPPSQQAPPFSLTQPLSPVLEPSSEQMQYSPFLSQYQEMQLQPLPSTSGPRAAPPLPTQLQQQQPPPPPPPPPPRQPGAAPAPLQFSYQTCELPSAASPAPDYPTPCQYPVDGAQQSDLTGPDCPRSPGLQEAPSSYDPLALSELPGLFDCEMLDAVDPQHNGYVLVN
A general note: ADP-Glo turns the ADP formed in a reaction into a luminescent signal.
`Cn1ncc(OC[C@H](N)c2ccccc2)c1-c1ccn2nc(NC(=O)C3CC3)cc2c1` [Example 237, N-[5-[4-[(2R)-2-amino-2-phenyl-ethoxy]-2-methyl-pyrazol-3-yl]pyrazolo[1,5-a]pyridin-2-yl]cyclopropanecarboxamide] displayed an IC50 of 10.7 nM. For `Cc1ncc(Nc2cc3cc(-c4c(O[C@H]5CCN(C)C5)cnn4C)ccn3n2)nc1C` [Example 349, N-(5,6-dimethylpyrazin-2-yl)-5-[2-methyl-4-[(3S)-1-methylpyrrolidin-3-yl]oxy-pyrazol-3-yl]pyrazolo[1,5-a]pyridin-2-amine] the value was 55.9 nM. For `COc1cc(Nc2cc3cc(-c4c(OC[C@H]5CCN5C)cnn4C)ccn3n2)cc(OC)c1C(=O)NC(C)C` [Example 37, N-isopropyl-2,6-dimethoxy-4-[[5-[2-methyl-4-[[(2R)-1-methylazetidin-2-yl]methoxy]pyrazol-3-yl]pyrazolo[1,5-a]pyridin-2-yl]amino]benzamide], it took 42.9 nM to reach half-maximal inhibition (IC50).

Regarding `Cc1cnc(Nc2cc3cc(-c4c(OC[C@H]5CCN5CCF)cnn4C)ccn3n2)cn1` [Example 279, 5-[4-[[(2R)-1-(2-fluoroethyl)azetidin-2-yl]methoxy]-2-methyl-pyrazol-3-yl]-N-(5-methylpyrazin-2-yl)pyrazolo[1,5-a]pyridin-2-amine], the midpoint of inhibition, the IC50, lay at 1.8 nM. The value for `CCc1cc(Nc2cc3cc(-c4c(OC[C@@H]5CCN5C)cnn4C)ccn3n2)nc(C)n1` [Example 137, N-(6-ethyl-2-methyl-pyrimidin-4-yl)-5-[2-methyl-4-[[(2S)-1-methylazetidin-2-yl]methoxy]pyrazol-3-yl]pyrazolo[1,5-a]pyridin-2-amine] was 16.9 nM; that for `CC(C)c1cc(Nc2cc3cc(-c4c(O[C@H]5CCN(C)C5)cnn4C)ccn3n2)ncn1` [Example 271, N-(6-isopropylpyrimidin-4-yl)-5-[2-methyl-4-[(3S)-1-methylpyrrolidin-3-yl]oxy-pyrazol-3-yl]pyrazolo[1,5-a]pyridin-2-amine] was 40.8 nM. The value for `Cc1onc(OC2CCNCC2)c1-c1ccn2nc(NC(=O)C3CC3)cc2c1` [Example 316, N-[5-[5-methyl-3-(4-piperidyloxy)isoxazol-4-yl]pyrazolo[1,5-a]pyridin-2-yl]cyclopropanecarboxamide] was 50.3 nM. For `Cc1cc(C(=O)NC(C)C)cc(Nc2cc3cc(-c4c(OC[C@H]5CCN5C)cnn4C)ccn3n2)n1` [Example 112, N-isopropyl-2-methyl-6-[[5-[2-methyl-4-[[(2R)-1-methylazetidin-2-yl]methoxy]pyrazol-3-yl]pyrazolo[1,5-a]pyridin-2-yl]amino]pyridine-4-carboxamide] the value was 2.7 nM.

With `Cc1onc(O[C@@H]2CCN(C)C3(CCC3)C2)c1-c1ccn2nc(NC(=O)C3CC3)cc2c1` (single isomer, unassigned) [Example 219, (*R)—N-[5-[5-methyl-3-[(9-methyl-9-azaspiro[3.5]nonan-6-yl)oxy]isoxazol-4-yl]pyrazolo[1,5-a]pyridin-2-yl]cyclopropanecarboxamide], the IC50 was found to be 44.3 nM. For `CN1CC[C@@H]1COc1cnn(C)c1-c1ccn2nc(Nc3ncc(F)cn3)cc2c1` [Example 395, N-(5-fluoropyrimidin-2-yl)-5-[2-methyl-4-[[(2R)-1-methylazetidin-2-yl]methoxy]pyrazol-3-yl]pyrazolo[1,5-a]pyridin-2-amine] the value was 97.5 nM. The value for `Cc1cc(Nc2cc3cc(-c4c(OC[C@@H]5CCN5C)cnn4C)ccn3n2)nc(C)n1` [Example 139, N-(2,6-dimethylpyrimidin-4-yl)-5-[2-methyl-4-[[(2S)-1-methylazetidin-2-yl]methoxy]pyrazol-3-yl]pyrazolo[1,5-a]pyridin-2-amine] was 19.7 nM. Regarding `CCN1CC[C@@H]1COc1cnn(C)c1-c1ccn2nc(NC(=O)[C@@H]3C[C@H]3C)cc2c1` [Example 66, (1R,2R)—N-[5-[4-[[(2R)-1-ethylazetidin-2-yl]methoxy]-2-methyl-pyrazol-3-yl]pyrazolo[1,5-a]pyridin-2-yl]-2-methyl-cyclopropanecarboxamide], the IC50 is 1.4 nM.

The molecule `Cc1onc(O[C@@H]2CN[C@H](C(F)F)C2)c1-c1ccn2nc(NC(=O)C3CC3)cc2c1` [Example 389, N-[5-[3-[(3S,5S)-5-(difluoromethyl)pyrrolidin-3-yl]oxy-5-methyl-isoxazol-4-yl]pyrazolo[1,5-a]pyridin-2-yl]cyclopropanecarboxamide] had an IC50 of 125 nM. Molecule `Cc1cc(Nc2cc3cc(-c4c(OC[C@]5(C)CCOC5)cnn4C)ccn3n2)nc(C)n1` (single isomer, unassigned) [Example 440, (*S)—N-(2,6-dimethylpyrimidin-4-yl)-5-[2-methyl-4-[(3-methyltetrahydrofuran-3-yl)methoxy]pyrazol-3-yl]pyrazolo[1,5-a]pyridin-2-amine] had an IC50 of 70.1 nM. For `CN1C[C@H](F)[C@H](Oc2cnn(C)c2-c2ccn3nc(NC(=O)C4CC4)cc3c2)C1` [Example 415, N-[5-[4-[(3R,4S)-4-fluoro-1-methyl-pyrrolidin-3-yl]oxy-2-methyl-pyrazol-3-yl]pyrazolo[1,5-a]pyridin-2-yl]cyclopropanecarboxamide] the value was 124 nM. For `CCN1CC[C@@H]1COc1cnn(C(F)F)c1-c1ccn2nc(Nc3cc(C)ncn3)cc2c1` [Example 478, 5-[2-(difluoromethyl)-4-[[(2R)-1-ethylazetidin-2-yl]methoxy]pyrazol-3-yl]-N-(6-methylpyrimidin-4-yl)pyrazolo[1,5-a]pyridin-2-amine] the value was 3 nM; for `CCN1CC[C@@H]1COc1cnn(C)c1-c1ccn2nc(Nc3ccc(=O)n(C)n3)cc2c1` [Example 170, 6-[[5-[4-[[(2R)-1-ethylazetidin-2-yl]methoxy]-2-methyl-pyrazol-3-yl]pyrazolo[1,5-a]pyridin-2-yl]amino]-2-methyl-pyridazin-3-one], 0.9 nM.

On to `Cc1cc(Nc2cc3cc(-c4c(O[C@@H]5CCN(C)[C@H]5C)cnn4C)ccn3n2)nc(C)n1` [Example 354, N-(2,6-dimethylpyrimidin-4-yl)-5-[4-[(2S,3R)-1,2-dimethylpyrrolidin-3-yl]oxy-2-methyl-pyrazol-3-yl]pyrazolo[1,5-a]pyridin-2-amine], for which the IC50 stood at 67.3 nM. For `Cc1onc(OC[C@H](N)c2ccccc2)c1-c1ccn2nc(NC(=O)C3CC3)cc2c1` [Example 204, N-[5-[3-[(2R)-2-amino-2-phenyl-ethoxy]-5-methyl-isoxazol-4-yl]pyrazolo[1,5-a]pyridin-2-yl]cyclopropanecarboxamide] the value was 17.4 nM; for `CN1CC[C@@H]1COc1cnn(C)c1-c1ccn2nc(NC(=O)[C@@H]3C[C@@H]3c3ccccc3)cc2c1` (single isomer, unassigned) [Example 474, (1*R,2*S)—N-(5-(1-methyl-4-(((R)-1-methylazetidin-2-yl)methoxy)-1H-pyrazol-5-yl)pyrazolo[1,5-a]pyridin-2-yl)-2-phenylcyclopropane-1-carboxamide], 428 nM; for `CCN1CC[C@@H]1COc1cnn(C(F)F)c1-c1ccn2nc(Nc3cc(C)c(=O)n(C)n3)cc2c1` [Example 484, 6-[[5-[2-(difluoromethyl)-4-[[(2R)-1-ethylazetidin-2-yl]methoxy]pyrazol-3-yl]pyrazolo[1,5-a]pyridin-2-yl]amino]-2,4-dimethyl-pyridazin-3-one], 0.9 nM. The value for `CCN1CC2(CC2)[C@H]1COc1cnn(C)c1-c1ccn2nc(NC(=O)C3CC3)cc2c1` (single isomer, unassigned) [Example 67, (*S)—N-[5-[4-[(5-ethyl-5-azaspiro[2.3]hexan-6-yl)methoxy]-2-methyl-pyrazol-3-yl]pyrazolo[1,5-a]pyridin-2-yl]cyclopropanecarboxamide] was 52.1 nM; that for `COc1cc(Nc2cc3cc(-c4c(OC[C@H]5CCN5C)cnn4C)ccn3n2)ncn1` [Example 127, N-(6-methoxypyrimidin-4-yl)-5-[2-methyl-4-[[(2R)-1-methylazetidin-2-yl]methoxy]pyrazol-3-yl]pyrazolo[1,5-a]pyridin-2-amine] was 11 nM.

`Cc1cc(Nc2cc3cc(-c4c(OCC5(F)CCNC5)cnn4C(F)F)ccn3n2)nc(C)n1` (racemic) [Example 101, (RS)-5-[2-(difluoromethyl)-4-[(3-fluoropyrrolidin-3-yl)methoxy]pyrazol-3-yl]-N-(2,6-dimethylpyrimidin-4-yl)pyrazolo[1,5-a]pyridin-2-amine]: the IC50 was determined as 7.2 nM. For `CCN1CC[C@@H]1COc1cnn(C)c1-c1ccn2nc(Nc3cc(C(F)(F)F)nc(C)n3)cc2c1` [Example 162, 5-[4-[[(2R)-1-ethylazetidin-2-yl]methoxy]-2-methyl-pyrazol-3-yl]-N-[2-methyl-6-(trifluoromethyl)pyrimidin-4-yl]pyrazolo[1,5-a]pyridin-2-amine] the value was below 0.847 nM; for `Cc1onc(OCC2(C(N)=O)CNC2)c1-c1ccn2nc(NC(=O)C3CC3)cc2c1` [Example 198, 3-[[4-[2-(cyclopropanecarbonylamino)pyrazolo[1,5-a]pyridin-5-yl]-5-methyl-isoxazol-3-yl]oxymethyl]azetidine-3-carboxamide], 28.7 nM; for `Cc1cc(Nc2cc3cc(-c4c(O[C@H]5C[C@@H]6CC[C@H]5O6)cnn4C)ccn3n2)nc(C)n1` (single isomer, unassigned) [Example 441, (1*R, 2*S, 4*S)—N-(2,6-dimethylpyrimidin-4-yl)-5-[2-methyl-4-(7-oxabicyclo[2.2.1]heptan-3-yloxy)pyrazol-3-yl]pyrazolo[1,5-a]pyridin-2-amine], 72.9 nM.

Values taken from US20240174662A1, “SMALL MOLECULE INHIBITORS OF SALT INDUCIBLE KINASES” (Janssen Biotech, Inc., priority 2021, published 2024).
